Experimental data from patent publication US20240239786A1, “COMPOSITIONS AND METHODS FOR THE TREATMENT AND PREVENTION OF CANCER” (Yale University, priority 2021, published 2024).

Tests used:
[1] = target: T1, ribonucleotide reductase (RNR) (Homo sapiens, UniProt P31350); conditions: fold more potent than hydroxyurea; cited from earlier work
T1 sequence (P31350 1-389): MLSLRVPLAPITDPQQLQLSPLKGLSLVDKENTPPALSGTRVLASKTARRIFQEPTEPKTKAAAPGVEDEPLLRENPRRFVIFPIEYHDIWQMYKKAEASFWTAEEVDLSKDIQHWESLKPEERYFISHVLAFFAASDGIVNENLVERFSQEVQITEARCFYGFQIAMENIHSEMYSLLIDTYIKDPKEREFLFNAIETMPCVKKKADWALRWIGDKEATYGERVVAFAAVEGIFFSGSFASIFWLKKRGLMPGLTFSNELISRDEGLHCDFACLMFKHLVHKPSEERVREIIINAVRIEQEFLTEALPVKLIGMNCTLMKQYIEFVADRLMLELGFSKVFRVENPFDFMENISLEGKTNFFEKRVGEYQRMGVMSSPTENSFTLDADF

[2] = Chemical stability of DB4: potency after pre-incubation in cell-free medium (EdU readout); assay type: physicochemical; conditions: pre-incubated in cell-free medium at 37° C. up to 72 hr; PEO4 cells
Procedure: DB4 remained mostly active and intact after 72 hr in the culture medium. The dose response curve of DB4 in DNA synthesis inhibition in PEO4 cells was generated as determined by EdU flow cytometric analysis. […] PEO4 cells were treated with these media for 24 hr. The level of DNA synthesis inhibition was determined to interpolate and calculate % DB4 remaining compared with the control at 0 hr. FIG. 5B depicts representative results for remaining DB4 after DB4 (MW=496.1) was added to the culture medium at 50 μM for 0 hr, 24 hr, 48 hr, or 72 hr at 37° C. FIG. 5C depicts representative mass spectrum obtained from mass spectrometry that was run to detect the level of the 496.13 ion at 0 hr. FIG. 5D depicts representative mass spectrum obtained from mass spectrometry that was run to detect the level of the 496.13 ion at 72 hr.
To ensure that DB4 remained chemically stable, the time course study was performed by determining the potency of DB4 following a pre-incubation in the cell-free medium at 37° C. for up to 72 hr. Cells were treated for 24 hr with the medium containing pre-incubated DB4 and DNA synthesis was determined by the EdU incorporation assay.

[3] = system: cNHEJ activity; test: NHEJ reporter assay in SKOV3-EJ5-GFP cells; assay type: cell-based; conditions: I-SceI-mediated DSBs
Text: Cells were transfected with the ISceI-expressing plasmid and then treated various concentrations of DB4 for 48 hr. Cells were harvested, stained with 7-AAD, and analyzed by flow cytometry for GFP-positive cells indicative of HR repair activity. […] Cells were transfected with the ISceI-expressing plasmid and treated with various concentrations of DB4. Cells were harvested, stained with 7-AAD, and stained, and analyzed by flow cytometry for GFP-positive cells indicative of NHEJ activity. Data are means±SD (N=3). *, p<0.05; **, p<0.01, compared with the 0 μM control of ISceI-transected cells. FIG. 7C depicts representative results of confocal imaging of olaparib-induced nuclear Rad51 foci in SKOV3 cells treated DB4. […] Cells were also scored for nuclei containing equal or more than 10 distinct Rad51 foci to determine the percentage of cells positive for Rad51 foci. […] Protein was assessed by western blot analysis for the levels of γH2AX, p-H1, cyclin A2, p-CDK1/2, and HSC70. […] The band density of γH2AX indicative of DSBs was quantified by densitometry. […]
SKOV3-DR-GFP cells were established as described previously (Lin Z P et al., 2014, Molecular Cancer Res, 12:381-393). […] Cells were then trypsinized, stained with 7-AAD, and analyzed for the percentage of GFP-positive and […] cells by flow cytometry using an LSR II flow cytometer (BD Biosciences) and FlowJo software (Tree Star; Ashland, OR). […]

[4] = system: PD-L1; test: PD-L1 level in BRCA-wild type PEO4 cells; assay type: cell-based
Text: FIG. 21A depicts representative effects of DB4 and/or olaparib on BRCA-wild type PEO4 cells after 24, 48, and 72 hr. FIG. 21B depicts representative effects of DB4 and/or olaparib on the level of DSBs in BRCA-wild type PEO4 cells. FIG. 21C depicts representative effects of DB4 and/or olaparib on the level of PD-L1 protein in BRCA-wild type PEO4 cells.
FIG. 22 depicts representative effects of DB4 and/or olaparib on PD-L1-positive populations of BRCA-mutated PEO1 and BRCA-wild type PEO4 cells. DB4 and/or olaparib increased the PD-L1-positive population of BRCA-wild type PEO4 cells in the presence of IFNγ.

Question: With NC(=S)NN=Cc1ncccc1N [triapine, 3-aminopyridine-2-carboxaldehyde-thiosemicarbazone, reference compound] as the compound, how does the “potency relative to the RNR inhibitor hydroxyurea” value [1] read?
Answer: The value was 1,000 times.

Question: What does the source list for C=CCn1c(SCc2cccc(Cl)c2)nnc1C1CCN(Cc2nc3ccccc3s2)CC1 [DB4, 2-[(4-{4-allyl-5-[(3-chlorobenzyl)thio]-4H-1,2,4-triazol-3-yl}-1-piperidinyl)methyl]-1,3-benzothiazole]?
Answer: activity to inhibit DNA synthesis after pre-incubation [2]: more than 82%; cNHEJ activity [3]: appeared to enhance the cNHEJ activity induced by I-SceI-mediated DSBs but the increase was not statistically significant; PD-L1 protein level ([4]; BRCA-wild type EOC cells): up-regulation of PD-L1 protein; PD-L1-positive population ([4]; PEO4 cells in the presence of IFNγ): significantly increased
